Source: US8802686B2, “Sulfone-substituted anilinopyrimidine derivatives as CDK inhibitors, the production thereof, and use as a medicine” (Bayer Intellectual Property GmbH, priority 2008, dated 2014)
Where two headings read alike, the source gives them in different places.

Assays:
[1] = system: DU 145, hormone-independent human prostrate carcinoma cells; experiment: Proliferation assay (Assay 5), DU145; type: cell-based; settings: DU-145, 96 h, read-out: Concentration of the half-maximal inhibition of the cell proliferation, IC50
Excerpt: (§1) Cultivated human tumour cells (MCF7, hormone-independent human breast carcinoma cells, acquired from ATCC HTB22; NCI-H460, human non-small-cell lung carcinoma cells, ATCC HTB-177; DU 145, hormone-independent human prostrate carcinoma cells, ATCC HTB-81; HeLa-MaTu, human cervix carcinoma cells, EPO-GmbH, Berlin; HeLa-MaTu-MDR, multiple drug-resistant human cervix carcinoma cells, EPO-GmbH, Berlin; Caco-2, human colon carcinoma cells, ATCC HTB-37; B16F10, murine melanoma cell, ATCC CRL-6475) were plated out at a density of ca. 1000-5000 cells/measuring point, depending on the growth rate of the particular cells, in a 96-well multititre plate in 200 μl of the corresponding growth medium. After 24 hours, the cells of one plate (zero-point plate) were stained with crystal violet (see below), whereas the medium of the other plates was replaced with fresh culture medium (200 μl), to which the test substances had been added at different concentrations (0 μM, and in the range 0.003-3 μM; the final concentration of the solvent dimethyl sulphoxide was 0.5%). The cells were incubated for 4 days in the presence of the test substances. Cell proliferation was determined by staining the cells with crystal violet: the cells were fixed by adding 20 μl/measuring point of an 11% glutaraldehyde solution for 15 min at room temperature. After washing the fixed cells with water three times, the plates were dried at room temperature. The cells were stained by adding 100 μl/measuring point of a 0.1% crystal violet solution (pH adjusted to pH 3 by adding acetic acid). After washing the stained cells with water three times, the plates were dried at room temperature. The dye was dissolved by adding 100 μl/measuring point of a 10% acetic acid solution. The extinction was determined photometrically at a wavelength of 595 nm. […] The IC50 values were determined by means of a 4-parameter fit using the company's own software.

[2] = Permeability assay (Assay 6), Caco-2 monolayer; type: in vitro ADME; settings: human; for Papp A→B at 90 min / Papp B→A at 90 min: Caco-2, 90 min, 37° C.; for Papp A→B at 90 min: read-out: Permeation coefficient, Papp apical-basolateral (a-b); for Papp B→A at 90 min: read-out: Permeation coefficient, Papp basolateral-apical (b-a); for efflux ratio at 90 min: Caco-2, read-out: ratio (b-a)/(a-b)
Procedure: The Caco-2 monolayer is a barrier between 2 compartments. The cells here behave similarly to the small intestine cells. Active ingredients can be transported either paracellularly or transcellularly. Here, the transport takes place in most cases from apical (luminal) to basolateral (serosal). In the case of p-glycoprotein substrates, back-transport from basolateral to apical is also usually observed.
Experimental procedure: The permeability test is carried out both from apical to basolateral and also from basolateral to apical. For this, two filters are used per substance; incubation takes place over 90 min at 37° C. in a water bath. […] As reference substances, (i) PEG 4000 are used as hydrophilic marker. On account of its high molecular weight, it is unable to permeate into the cell membrane or into the pores of the tight junctions. PEG 4000 is therefore a marker of the intactness of the cell monolayer and the narrowness of the tight junctions. PEG 4000 is not absorbed in humans. (ii) Clonidine is known as completely absorbed substances in people (100%). They serve as markers for very highly permeable substances with Papp values above 100 nm/s. (iii) Digoxin is a known Pgp substrate. […] In the reverse experiment (basolateral to apical), the Papp values should be higher by a factor of about 10 as a result of the active directional transport into the apical compartment.
The permeation coefficient Papp is used to estimate the absorption in people according to the following scheme: […]

[3] = system: Caco-2, human colon carcinoma cells; experiment: Proliferation assay (Assay 5), Caco-2; type: cell-based; settings: read-out: Concentration of the half-maximal inhibition of the cell proliferation, IC50
Excerpt: as §1

[4] = system: B16F10, murine melanoma cell; experiment: Proliferation assay (Assay 5), B16F10; type: cell-based; settings: Mus musculus, B16-F10, 96 h, read-out: Concentration of the half-maximal inhibition of the cell proliferation, IC50
Excerpt: as §1

[5] = system: HeLa-MaTu-ADR (HeLa-MaTu-MDR, multiple drug-resistant human cervix carcinoma cells); experiment: Proliferation assay (Assay 5), HeLa-MaTu-ADR; type: cell-based; settings: 96 h, read-out: Concentration of the half-maximal inhibition of the cell proliferation, IC50
Excerpt: as §1

[6] = system: MCF7, hormone-independent human breast carcinoma cells; experiment: Proliferation assay (Assay 5), MCF7; type: cell-based; settings: read-out: Concentration of the half-maximal inhibition of the cell proliferation, IC50
Excerpt: as §1

CDK4/CycD1 = CDK4/CycD1 (Homo sapiens (Human), UniProt P11802); experiment: CDK4/CycD kinase assay (Assay 3); type: biochemical; settings: read-out: CDK4/CycD (Assay 3) Concentration of the half-maximal inhibition of the enzyme activity, IC50
Chain of CDK4/CycD1 (P11802 whole entry, the tested form may be a part): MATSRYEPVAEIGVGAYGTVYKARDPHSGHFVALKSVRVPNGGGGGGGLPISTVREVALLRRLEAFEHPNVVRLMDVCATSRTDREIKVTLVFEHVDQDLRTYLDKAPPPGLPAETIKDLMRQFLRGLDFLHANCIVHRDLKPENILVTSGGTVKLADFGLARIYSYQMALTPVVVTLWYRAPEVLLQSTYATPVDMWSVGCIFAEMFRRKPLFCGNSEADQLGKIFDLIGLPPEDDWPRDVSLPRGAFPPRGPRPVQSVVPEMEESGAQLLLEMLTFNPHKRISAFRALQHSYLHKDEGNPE
Chain of CDK4/CycD1 (P24385 whole entry partner, the tested form may be a part): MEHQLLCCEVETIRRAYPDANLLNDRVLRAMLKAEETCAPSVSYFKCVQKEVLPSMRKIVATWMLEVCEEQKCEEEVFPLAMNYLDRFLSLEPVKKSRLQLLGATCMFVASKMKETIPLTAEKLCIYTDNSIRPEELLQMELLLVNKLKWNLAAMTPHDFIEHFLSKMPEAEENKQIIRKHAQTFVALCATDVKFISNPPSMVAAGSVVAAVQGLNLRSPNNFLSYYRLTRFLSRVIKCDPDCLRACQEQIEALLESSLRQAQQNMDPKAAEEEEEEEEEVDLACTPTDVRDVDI
Procedure: Recombinant CDK4 and CycD1-GST fusion proteins, purified from baculovirus-infected insect cells (Sf9), were purchased from ProQinase GmbH, Freiburg. CDK4/CycD1 (250 ng/measuring point) was incubated for 3 hours at 22° C. in the presence of different concentrations of test substances (0 μM, and within the range 0.001-10 μM) in 31 μl of assay buffer [50 mM Hepes pH 7.0; 2.5 mM MnCl; 0.05 mM Na ortho-vanadate; 1.0 mM dithiothreitol; 0.25 μM adenosine trisphosphate (ATP); 0.5 μM biotinylated myelin basic protein (bio-MPB, GE Healthcare); 0.05 μCi/measuring point ^33P-gamma ATP; 0.005% NP40; 0.025% bovine serum albumin; 3% dimethyl sulphoxide]. The reaction was stopped by adding 50 μl of stop-mix [100 μM ATP; 10 mM EDTA pH 8.0; 0.2% Triton X100; 0.125 mg of streptavidin-SPA Beads (GE Healthcare)]. After incubation for 10 min at room temperature, the SPA beads were pelleted by centrifugation (10 min; 1500 g). The amount of incorporated ^33P (substrate phosphorylation) was determined by scintillation measurement in a beta-radiation measuring instrument (Microbeta, Perkin Elmer).

[7] = system: HeLa-MaTu, human cervix carcinoma cells; experiment: Proliferation assay (Assay 5), HeLa-MaTu; type: cell-based; settings: 96 h, read-out: Concentration of the half-maximal inhibition of the cell proliferation, IC50
Excerpt: as §1

[8] = system: NCI-H460, human non-small-cell lung carcinoma cells; experiment: Proliferation assay (Assay 5), NCI-H460; type: cell-based; settings: read-out: Concentration of the half-maximal inhibition of the cell proliferation, IC50
Excerpt: as §1

CDK1/CycB = CDK1/CycB (Homo sapiens (Human), UniProt P06493); experiment: CDK1/CycB kinase assay (Assay 1); type: biochemical; settings: read-out: CDK1/CycB (Assay 1) Concentration of the half-maximal inhibition of the enzyme activity, IC50
Chain of CDK1/CycB (P06493 whole entry): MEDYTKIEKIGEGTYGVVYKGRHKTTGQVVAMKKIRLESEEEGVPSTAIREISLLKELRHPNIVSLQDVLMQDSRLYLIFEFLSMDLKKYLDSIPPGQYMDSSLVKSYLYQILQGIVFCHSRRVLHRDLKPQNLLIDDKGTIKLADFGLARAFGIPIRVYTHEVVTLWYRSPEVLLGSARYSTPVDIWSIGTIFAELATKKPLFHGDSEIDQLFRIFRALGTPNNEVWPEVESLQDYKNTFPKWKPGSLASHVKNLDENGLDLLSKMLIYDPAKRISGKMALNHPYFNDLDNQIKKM
Chain of CDK1/CycB (P14635 whole entry partner): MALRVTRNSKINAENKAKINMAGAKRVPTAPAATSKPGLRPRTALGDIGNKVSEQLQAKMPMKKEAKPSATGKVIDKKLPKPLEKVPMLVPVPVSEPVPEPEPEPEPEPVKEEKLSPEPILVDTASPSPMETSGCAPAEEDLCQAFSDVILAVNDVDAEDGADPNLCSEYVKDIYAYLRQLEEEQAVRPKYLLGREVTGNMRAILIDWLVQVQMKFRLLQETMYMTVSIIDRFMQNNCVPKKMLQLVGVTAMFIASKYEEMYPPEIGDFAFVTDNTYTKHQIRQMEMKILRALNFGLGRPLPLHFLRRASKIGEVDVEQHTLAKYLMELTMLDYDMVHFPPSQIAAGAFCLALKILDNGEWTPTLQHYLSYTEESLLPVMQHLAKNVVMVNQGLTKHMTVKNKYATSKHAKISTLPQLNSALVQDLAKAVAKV
Procedure: CDK1/CycB (200 ng/measuring point) was incubated for 10 min at 22° C. in the presence of different concentrations of test substances (0 and within the range 0.001-10 μM) in assay buffer [50 mM Tris/HCl pH 8.0; 10 mM MgCl2; 0.1 mM Na ortho-vanadate; 1.0 mM dithiothreitol; 0.5 μM adenosine trisphosphate (ATP); 10 μg/measuring point histone IIIS; 0.2 μCi/measuring point ^33P-gamma ATP; 0.05% NP40; 1.25% dimethyl sulphoxide]. The reaction was stopped by adding EDTA solution (250 mM; pH 8.0; 15 μl/measuring point).
From each reaction mixture, 15 μl were applied to P30 filter strips (Wallac), and unincorporated ^33P-ATP was removed by washing the filter strips three times, for 10 min in each case, in 0.5% phosphoric acid. After drying the filter strips for 1 hour at 70°, the filter strips were covered with scintillator strips (MeltiLex™ A, Wallac) and stoved for 1 hour at 90° C. The amount of incorporated ^33P (substrate phosphorylation) was determined by scintillation measurement in a gamma-radiation measuring instrument (Wallac). […] The IC50 values were determined by means of a 4-parameter fit using the company's own software.

CDK2/CycE = CDK2/CycE (Homo sapiens (Human), UniProt P24941); experiment: CDK2/CycE kinase assay (Assay 2); type: biochemical; settings: read-out: CDK2/CycE (Assay 2) Concentration of the half-maximal inhibition of the enzyme activity, IC50
Procedure: Recombinant CDK2 and CycE-GST fusion proteins, purified from baculovirus-infected insect cells (Sf9), were purchased from ProQinase GmbH, Freiburg. Histone IIIS, which was used as kinase substrate, was purchased from Sigma.
CDK2/CycE (50 mg/measuring point) was incubated for 10 min at 22° C. in the presence of different concentrations of test substances (0 μM, and within the range 0.001-10 μM) in assay buffer [50 mM Tris/HCl pH 8.0; 10 mM MgCl2; 0.1 mM Na ortho-vanadate; 1.0 mM dithiothreitol; 0.5 μM adenosine trisphosphate (ATP); 10 μg/measuring point histone IIIS; 0.2 μCi/measuring point ^33P-gamma ATP; 0.05% NP40; 1.25% dimethyl sulphoxide]. The reaction was stopped by adding EDTA solution (250 mM; pH 8.0; 15 μl/measuring point).
(§2) From each reaction mixture, 15 μl were applied to P30 filter strips (Wallac), and unincorporated ^33P-ATP was removed by washing the filter strips three times, for 10 min in each case, in 0.5% phosphoric acid. After drying the filter strips for 1 hour at 70° C., the filter strips were covered with scintillator strips (MeltiLex™ A, Wallac) and stoved for 1 hour at 90° C. The amount of incorporated ^33P (substrate phosphorylation) was determined by scintillation measurement in a gamma-radiation measuring instrument (Wallac). […] The IC50 values were determined by means of a 4-parameter fit using the company's own software.

Caco-2 monolayer = settings: reference substance, cited from earlier work
[9] = reference substance; cited from earlier work
[10] = target: VEGF receptor tyrosine kinase-2 (VEGF-R2) (Homo sapiens (Human), UniProt P35968); experiment: VEGF receptor-2 kinase assay (Assay 4); type: biochemical; settings: read-out: VEGF-R2 (Assay 4) Concentration of the half-maximal inhibition of the enzyme activity, IC50
Chain of VEGF receptor tyrosine kinase-2 (VEGF-R2) (P35968 20-1356, species assumed): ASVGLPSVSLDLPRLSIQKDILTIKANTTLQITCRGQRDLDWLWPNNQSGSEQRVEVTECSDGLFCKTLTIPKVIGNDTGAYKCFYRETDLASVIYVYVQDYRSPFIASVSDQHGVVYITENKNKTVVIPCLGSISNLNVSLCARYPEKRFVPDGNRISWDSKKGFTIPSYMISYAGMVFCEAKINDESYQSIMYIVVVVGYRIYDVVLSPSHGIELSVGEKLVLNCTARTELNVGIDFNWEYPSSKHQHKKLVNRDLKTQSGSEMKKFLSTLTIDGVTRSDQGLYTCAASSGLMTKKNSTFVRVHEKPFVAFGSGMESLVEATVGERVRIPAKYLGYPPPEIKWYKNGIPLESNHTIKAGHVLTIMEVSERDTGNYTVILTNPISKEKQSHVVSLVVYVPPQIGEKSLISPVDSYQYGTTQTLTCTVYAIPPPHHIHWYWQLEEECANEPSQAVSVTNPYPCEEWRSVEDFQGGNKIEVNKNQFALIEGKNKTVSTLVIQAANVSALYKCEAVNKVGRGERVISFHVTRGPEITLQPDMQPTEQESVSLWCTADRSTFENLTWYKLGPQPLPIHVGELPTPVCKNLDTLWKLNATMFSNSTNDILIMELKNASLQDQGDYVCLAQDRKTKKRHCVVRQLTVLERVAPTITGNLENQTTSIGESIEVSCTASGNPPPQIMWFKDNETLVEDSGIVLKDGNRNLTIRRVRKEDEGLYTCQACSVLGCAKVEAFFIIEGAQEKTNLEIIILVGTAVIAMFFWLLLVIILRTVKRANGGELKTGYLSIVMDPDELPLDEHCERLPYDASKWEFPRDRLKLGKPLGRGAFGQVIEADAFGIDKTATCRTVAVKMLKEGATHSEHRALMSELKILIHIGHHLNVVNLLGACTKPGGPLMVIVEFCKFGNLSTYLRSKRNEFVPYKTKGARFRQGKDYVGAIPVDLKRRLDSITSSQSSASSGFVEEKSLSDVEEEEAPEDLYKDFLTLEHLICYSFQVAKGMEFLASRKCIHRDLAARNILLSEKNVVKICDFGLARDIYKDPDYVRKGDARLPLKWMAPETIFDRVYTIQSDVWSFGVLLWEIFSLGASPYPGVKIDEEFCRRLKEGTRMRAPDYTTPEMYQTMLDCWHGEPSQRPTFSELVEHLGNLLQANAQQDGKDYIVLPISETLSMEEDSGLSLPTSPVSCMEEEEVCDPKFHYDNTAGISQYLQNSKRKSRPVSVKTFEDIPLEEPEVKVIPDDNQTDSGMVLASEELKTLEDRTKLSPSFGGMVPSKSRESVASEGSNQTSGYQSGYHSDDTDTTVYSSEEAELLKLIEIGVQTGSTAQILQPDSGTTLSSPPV
Procedure: Recombinant VEGF receptor tyrosine kinase-2 was purified as GST fusion protein from baculovirus-infected insect cells (Sf9). Poly-(Glu4Tyr), which was used as kinase substrate, was purchased from Sigma.
VEGF receptor tyrosine kinase (90 ng/measuring point) was incubated for 10 min at 22° C. in the presence of different concentrations of test substances (0 μM, and within the range 0.001-10 μM) in 30 μl of assay buffer [40 mM Tris/HCl pH 5.5; 10 mM MgCl2; 1 mM MnCl2; 3 μM Na ortho-vanadate; 1.0 mM dithiothreitol; 8 μM adenosine trisphosphate (ATP); 0.96 μg/measuring point poly-(Glu4Tyr); 0.2 μCi/measuring point ^33P-gamma ATP; 1.4% dimethyl sulphoxide]. The reaction was stopped by adding EDTA solution (250 mM; pH 8.0; 15 μl/measuring point).
as §2

Compound: C[C@@H](O)[C@@H](C)Oc1nc(Nc2ccc(S(C)(=O)=O)cc2)ncc1C(F)(F)F [Example 2, (2R,3R)-3-[2-(4-Methanesulphonylphenylamino)-5-trifluoromethylpyrimidin-4-yloxy]butan-2-ol]
- IC50 [1]: 34 nM
- Papp A→B at 90 min [2]: 19.6 ×10⁻⁶ cm/s
- Papp B→A at 90 min [2]: 19.4 ×10⁻⁶ cm/s
- IC50 ([3]; Caco-2, 96 h): 66 nM
- IC50 [4]: 70 nM
- IC50 [5]: 14 nM
- IC50 ([6]; MCF7, 96 h): 35 nM
- IC50 (CDK4/CycD1): 24 nM
- IC50 [7]: 14 nM
- IC50 ([8]; NCI-H460, 96 h): 38 nM

Compound: C[C@@H](O)[C@@H](C)Oc1nc(Nc2ccc(S(=O)(=O)C3CC3)cc2)ncc1C(F)(F)F [Example 1, (2R,3R)-3-[2-(4-Cyclopropanesulphonylphenylamino)-5-trifluoromethylpyrimidin-4-yloxy]butan-2-ol]
- IC50 ([1]; DU145, 4 days): 17 nM
- efflux ratio at 90 min [2]: 0.9
- Papp A→B at 90 min [2]: 16.5 ×10⁻⁶ cm/s
- Papp B→A at 90 min [2]: 14.7 ×10⁻⁶ cm/s
- IC50 (CDK1/CycB): 16 nM
- IC50 ([3]; 96 h, Caco-2, 4 days): 45 nM
- IC50 ([4]; B16F10, 4 days): 49 nM
- IC50 ([5]; HeLa-MaTu-ADR, 4 days): 9 nM
- IC50 (CDK2/CycE): 16 nM
- IC50 ([6]; 96 h, MCF7, 4 days): 23 nM
- IC50 (CDK4/CycD1): 20 nM
- IC50 ([7]; HeLa-MaTu, 4 days): 11 nM
- IC50 ([8]; 96 h, NCI-H460, 4 days): 41 nM

Compound: C[C@@H](Oc1nc(Nc2ccc(S(C)(=O)=O)cc2)ncc1C(F)(F)F)C(C)(C)O [Example 3, (R)-3-[2-(4-Methanesulphonylphenylamino)-5-trifluoromethylpyrimidin-4-yloxy]-2-methylbutan-2-ol]
- IC50 ([1]; DU145, 4 days): 74 nM
- IC50 (CDK1/CycB): 32 nM
- IC50 ([3]; 96 h, Caco-2, 4 days): 180 nM
- IC50 ([4]; B16F10, 4 days): 270 nM
- IC50 ([5]; HeLa-MaTu-ADR, 4 days): 39 nM
- IC50 (CDK2/CycE): 12 nM
- IC50 ([6]; 96 h, MCF7, 4 days): 160 nM
- IC50 (CDK4/CycD1): 78 nM
- IC50 ([7]; HeLa-MaTu, 4 days): 35 nM
- IC50 ([8]; 96 h, NCI-H460, 4 days): 140 nM

Compound: C[C@H]1O[C@@H](O[C@H]2[C@@H](O)C[C@H](O[C@H]3[C@@H](O)C[C@H](O[C@H]4CC[C@@]5(C)[C@H](CC[C@@H]6[C@@H]5C[C@@H](O)[C@]5(C)[C@@H](C7=CC(=O)OC7)CC[C@]65O)C4)O[C@@H]3C)O[C@@H]2C)C[C@H](O)[C@@H]1O [Digoxin]
- permeability from apical to basolateral (Caco-2 monolayer; Pgp substrate): low permeability

Compound: Clc1cccc(Cl)c1N=C1NCCN1 [Clonidine]
- Papp values of reference marker (Caco-2 monolayer): above 100 nm/s
- absorbed in people [9]: 100%

Compound: C[C@@H](O)[C@@H](C)Nc1nc(Nc2ccc(S(=O)(=O)C3CC3)cc2)ncc1C(F)(F)F [C1, (2R,3R)-3-[2-(4-Cyclopropanesulphonylphenylamino)-5-trifluoromethylpyrimidin-4-ylamino]butan-2-ol, reference compound]
- IC50 ([1]; DU145, 4 days): 46 nM
- efflux ratio at 90 min [2]: 0.8
- Papp A→B at 90 min [2]: 20.7 ×10⁻⁶ cm/s
- Papp B→A at 90 min [2]: 17.4 ×10⁻⁶ cm/s
- IC50 (CDK1/CycB): 8 nM
- IC50 ([3]; 96 h, Caco-2, 4 days): 63 nM
- IC50 ([4]; B16F10, 4 days): 78 nM
- IC50 ([5]; HeLa-MaTu-ADR, 4 days): 26 nM
- IC50 [10]: 51 nM
- IC50 (CDK2/CycE): 6 nM
- IC50 ([6]; 96 h, MCF7, 4 days): 65 nM
- IC50 (CDK4/CycD1): 52 nM
- IC50 ([8]; 96 h, NCI-H460, 4 days): 37 nM
